A short description of data set [1]: pH and stability of solutions of the complexes (description). Conditions: for stability in solution: buffered pH of 7. The data set is classed as physicochemical.
Data set [2] is described as follows: In vivo test in man: plasma iron concentration by ICP after oral ferric monomaltol citrate. Particulars: time 0 mins (resting value). The method, then: A composition of the invention comprising ferric monomaltol citrate with 30 mg as iron in 5 ml of water was administered orally to a person who had fasted for 24 hours. The plasma iron concentration in the subject's bloodstream was determined by the ICP [inductively coupled plasma, (Machine Jobin Yvonne Modol 20)] technique which determines the emission spectra of elements by optical spectrometry when samples are subjected to a very hot flame. The technique is very sensitive and the accuracy and precision is less than +or −1%.

The nature of data set [3]: Stability of the 1:1 molar ratio complex of iron and hydroxypyrone (visual precipitates, UV-V spectroscopy). The data set is classed as physicochemical. The protocol: Various solutions of iron (III),and hydroxypyrone (ethylmaltol) were buffered to pH 7 with 50 mM morpholine propane sulphonate (MOPS) 50 mM, to pH 5 with sodium acetate (50 mM) and to pH 3 with glycine (50 mM). Iron III nitrate 9 H2O was used as a source of iron.

Data set [4] can be described thus: Solubility of iron complexes and mixtures (description). Particulars: for solubility relative to the 1:3 iron/hydroxypyrone molar ratio complex: 1:1 complexes. The data set is classed as physicochemical.
A short description of data set [5]: In vivo test in man: ICPOES analysis for iron in serum. Particulars: for Iron concentration [Fe] (s.d.) in serum: man, with 10% excess maltol. An excerpt: A composition of the invention comprising ferric maltol chloride ([FeM]^++Cl2−) ie. a 1:1 iron:hydroxypyrone complex together with a small (10%) excess of moltol (uncomplexed hydroxypyrone).
A short description of data set [6]: Tests to determine optimum pH and molar ratios of iron:hydroxypyrone for synthesis of the 1:1 complex. The data set is classed as physicochemical. Particulars: pH 1-2. The protocol: Further tests to determine the optimum pH and molar ratios of iron:hydroxypyrone for synthesis of the 1:1 complex were carried out using iron:hydroxypyrone (maltol) ratios of 1:1.1, 1:1.15 and 1:1.25. For each ratio concentrations of 1M, 0.1M and 0.01M were tested. In the tests iron was used in an aqueous form.

A further data set deals with red blood cell. Nature of the data set: Initial toxicity studies: red blood cell haemolysis. The data set is classed as cell-based. Particulars: liquid formulations.
A short description of data set [7]: Effect on iron absorption in vivo of maltol as a diet supplement (liver iron). Further details: species or system Male Wistar rats. Particulars: for Liver Fe: rats fed maltol 50 mg/kg by gavage on alternate days, individual animals 1-6; for Liver Fe, MEAN: rats fed maltol 50 mg/kg. The method, then:
Male Wistar rats, housed in polyethylene cages, initially weighing 70-80 grams were given a normal powder diet and water ad libitum for two weeks prior to treatment with maltol by gavage. Provided the animal was showing normal growth, treatment by gavage with maltol at 50 mg/kg was commenced and continued on alternate days for a further two weeks. At the end of the experimental period the animals were sacrificed, the livers were excised, mass determined and the sub cellular fraction assayed for iron be electrothermal atomic absorption. […]. The iron content of the diet is 240 mg/kg of food and the daily consumption of the rats is approximately 20 g which contains 4.8 mg as iron. The content of maltol in the diet is approximately 10 mg which is a ratio of iron/maltol of 4.8/10.0 which is approximately a 1:1 molar ratio (actual 1:1 is 4.5/10/0).
The liver content and concentration of iron in the sub cellular fraction were compared with the control group fed the same diet over the month, but without maltol.

Values joined by “and” are separate entries in the source; they are usually repeats but may differ in a detail not shown here. Equal entries are not always repeated.

`O=S(=O)([O-])[O-].[Fe+2]` [ferrous sulphate, reference compound]: the stability in solution entry in data set [1] is “precipitate very rapidly”.

On to `Cc1occc(=O)c1[O-].O=C([O-])CC(O)(CC(=O)O)C(=O)[O-].[Fe+3]` [ferric monomaltol citrate], for which the “iron conc (plasma)” value in data set [2] (30 mg as iron in 5 ml water, fasted 24 hours) was determined as 1.2 µg/mL; in data set [2] (30 mg as iron), 21.8 µmol/L.

`CCc1occc(=O)c1[O-].[Fe+3]` [iron ethyl maltol]: the stability of solutions result in data set [3] (0.1M, 0.01M and 0.001M, pH 3, 5 and 7) is given as “stable for up to two months”. For the same compound, the “formation of ferric triethylmaltol (1:3 complex)” value in data set [3] (wide concentration range, up to pH 7) is “no ferric triethylmaltol is found even at pH 7”. Also, the “solubility relative to the 1:3 iron/hydroxypyrone molar ratio complex” value in data set [4] was “approximately ten times more soluble”.

As for `Cc1occc(=O)c1[O-].[Cl-].[Cl-].[Fe+3]` [ferric maltol chloride], the “Iron concentration [Fe] (s.d.) in serum” value in data set [5] (time 0 min, n = 2) was 1188.81 (17.57) ppb; in data set [5] (time 20 min, n = 2), 1387.66 (63.08) ppb; in data set [5] (time 60 min, n = 2) it was 1600.62 (115.83) ppb; in data set [5] (time 120 min, n = 1) it was 1312.74 (0) (n = 1) ppb.

`Cc1occc(=O)c1[O-].[Fe+3]` [ferric monomaltol]: the “proportion of the solution that comprises the 1:1 complex” value in data set [6] is recorded as about 80%. In addition, the iron uptake result in data set [5] (in vivo, po) is “taken up well”. For the same compound, in data set [4], the “solubility relative to the 1:3 iron/hydroxypyrone molar ratio complex” value was “approximately ten times more soluble”. Moreover, the solubility result in data set [4] (pH 1-2) is “very soluble”. Moreover, in data set [1], the stability in solution entry is listed as “stability for extended periods (for example six months)”. Further, the “natural pH” value in data set [1] (solution) is given as “approximately 2.8”. In the data set with red blood cell, the “red blood cell haemolysis and breakdown” value was “do not cause red blood cell haemolysis and red blood cell breakdown”.

With `Cc1occc(=O)c1O` [Maltol, 3-hydroxy-2-methyl-4-pyrone], the “Liver Fe” value in data set [7] (iron concentration, µg per g liver) is 118.8 µg/g and 113.2 µg/g and 87.3 µg/g and 165.8 µg/g and 149.2 µg/g and 123.4 µg/g; in data set [7] (total iron, mg per liver), 1.44 mg/liver and 1.14 mg/liver and 0.86 mg/liver and 1.87 mg/liver and 1.69 mg/liver and 1.25 mg/liver. Moreover, the “Liver Fe, MEAN” value in data set [7] (mean of 6 animals (control 1.06 ± 0.25)) was 1.38 ± 0.37 mg/liver; in data set [7] (mean of 6 animals (control 120.1 ± 30.2)) it was 126.3 ± 27.7 µg/g. The “change in liver iron content versus control” value in data set [7] (rats, maltol 50 mg/kg by gavage) is reported as “small but significant increase”.

(Values after patent US6635631B2, “Iron compounds, compositions, methods of making the same and uses thereof” (Vitra Pharmaceuticals, Ltd., priority 1995, dated 2003).)
